Experimental data published in patent publication US8933230B2, “Phosphorus-containing group-substituted quinoline, its preparation process, medical composition containing the compounds and application” (priority 2011, dated 2015).

Assays:
Test in all cases: KinomeScan kinase panel
Format in all cases: binding
ASK2 = molecular target: T1, ASK2 (Homo sapiens, UniProt O95382)
T1 construct: purchased DiscoveRx Corporation (KinomeScan)
Procedure: (§1) In this example, the compound prepared in Example 10, N1-[4-[[7-[[1-(diethoxyphosphorylmethyl)-4-piperidinyl]methoxyl]-6-methoxyl-4-quinolyl]oxyl]-3-fluorophenyl]-N1′-(4-fluorophenyl)cyclopropane-1,1-dicarboxamide is tested for the inhibitory effect in the 442-kinase panel of KinomeScan™ (www.kinomescan.com) from DiscoveRx Corporation (4215 Sorrento Valley Blvd, San Diego, Calif. 92121) at 1000 nM of the compound concentration, the results are shown in the following Table 5:
(§2) For the detailed information of the screening technique, see Fabian, M. A. et al, Nat., Biotechnol. 2005, 23, 329 and Karaman, M. W. et al, Nat., Biotechnol. 2008, 26, 127. It can be seen from the following representative results that, the compound according to the present invention has significant inhibitory effect on kinases including c-Met, KDR or VEGFR2, RET, PDGFR-β, c-KIT, Flt3, MEK5, DDR1, LOK, CSF1R, EPHA7, EPHA8, EPHB6, MKNK2, BLK, HIPK4, HCK, Flt4 and the mutants thereof

CSF1R = molecular target: T2, CSF1R (Homo sapiens, UniProt P07333)
T2 construct: purchased DiscoveRx Corporation (KinomeScan)
Procedure: as §1, §2

DAPK3 = molecular target: T3, DAPK3 (Homo sapiens, UniProt O43293)
T3 construct: purchased DiscoveRx Corporation (KinomeScan)
T3 sequence (O43293 whole entry): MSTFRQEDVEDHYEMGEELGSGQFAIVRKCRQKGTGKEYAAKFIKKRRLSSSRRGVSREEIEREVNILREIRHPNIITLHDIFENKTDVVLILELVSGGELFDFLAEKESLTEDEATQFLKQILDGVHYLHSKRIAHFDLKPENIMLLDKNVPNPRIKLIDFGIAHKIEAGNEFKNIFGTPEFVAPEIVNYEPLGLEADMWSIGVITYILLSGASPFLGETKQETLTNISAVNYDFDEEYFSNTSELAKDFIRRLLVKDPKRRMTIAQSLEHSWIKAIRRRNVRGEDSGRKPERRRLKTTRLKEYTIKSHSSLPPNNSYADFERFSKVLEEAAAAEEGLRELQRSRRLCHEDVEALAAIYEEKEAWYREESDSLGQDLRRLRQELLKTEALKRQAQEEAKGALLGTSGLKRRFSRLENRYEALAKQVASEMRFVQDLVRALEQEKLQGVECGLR
Procedure: as §1, §2

DMPK = molecular target: T4, DMPK (Homo sapiens, UniProt Q09013)
T4 construct: purchased DiscoveRx Corporation (KinomeScan)
Procedure: as §1, §2

EPHA6 = molecular target: T5, EPHA6 (Homo sapiens, UniProt Q9UF33)
T5 construct: purchased DiscoveRx Corporation (KinomeScan)
Procedure: as §1, §2

EPHB2 = molecular target: T6, EPHB2 (Homo sapiens, UniProt P29323)
T6 construct: purchased DiscoveRx Corporation (KinomeScan)
Procedure: as §1, §2

EPHB6 = molecular target: T7, EPHB6 (Homo sapiens, UniProt O15197)
T7 construct: purchased DiscoveRx Corporation (KinomeScan)
Procedure: as §1, §2

ERBB4 = molecular target: T8, ERBB4 (Homo sapiens, UniProt Q15303)
T8 construct: purchased DiscoveRx Corporation (KinomeScan)
Procedure: as §1, §2

FGR = molecular target: T9, FGR (Homo sapiens, UniProt P09769)
T9 construct: purchased DiscoveRx Corporation (KinomeScan)
Procedure: as §1, §2

FLT3(ITD) = test system: FLT3(ITD)
Procedure: as §1, §2

HUNK = molecular target: T10, HUNK (Homo sapiens, UniProt P57058)
T10 construct: purchased DiscoveRx Corporation (KinomeScan)
Procedure: as §1, §2

JNK2 = molecular target: T11, JNK2 (Homo sapiens, UniProt P45984)
T11 construct: purchased DiscoveRx Corporation (KinomeScan)
Procedure: as §1, §2

KIT = molecular target: T12, KIT (Homo sapiens, UniProt P10721)
T12 construct: purchased DiscoveRx Corporation (KinomeScan)
T12 sequence (P10721 26-976): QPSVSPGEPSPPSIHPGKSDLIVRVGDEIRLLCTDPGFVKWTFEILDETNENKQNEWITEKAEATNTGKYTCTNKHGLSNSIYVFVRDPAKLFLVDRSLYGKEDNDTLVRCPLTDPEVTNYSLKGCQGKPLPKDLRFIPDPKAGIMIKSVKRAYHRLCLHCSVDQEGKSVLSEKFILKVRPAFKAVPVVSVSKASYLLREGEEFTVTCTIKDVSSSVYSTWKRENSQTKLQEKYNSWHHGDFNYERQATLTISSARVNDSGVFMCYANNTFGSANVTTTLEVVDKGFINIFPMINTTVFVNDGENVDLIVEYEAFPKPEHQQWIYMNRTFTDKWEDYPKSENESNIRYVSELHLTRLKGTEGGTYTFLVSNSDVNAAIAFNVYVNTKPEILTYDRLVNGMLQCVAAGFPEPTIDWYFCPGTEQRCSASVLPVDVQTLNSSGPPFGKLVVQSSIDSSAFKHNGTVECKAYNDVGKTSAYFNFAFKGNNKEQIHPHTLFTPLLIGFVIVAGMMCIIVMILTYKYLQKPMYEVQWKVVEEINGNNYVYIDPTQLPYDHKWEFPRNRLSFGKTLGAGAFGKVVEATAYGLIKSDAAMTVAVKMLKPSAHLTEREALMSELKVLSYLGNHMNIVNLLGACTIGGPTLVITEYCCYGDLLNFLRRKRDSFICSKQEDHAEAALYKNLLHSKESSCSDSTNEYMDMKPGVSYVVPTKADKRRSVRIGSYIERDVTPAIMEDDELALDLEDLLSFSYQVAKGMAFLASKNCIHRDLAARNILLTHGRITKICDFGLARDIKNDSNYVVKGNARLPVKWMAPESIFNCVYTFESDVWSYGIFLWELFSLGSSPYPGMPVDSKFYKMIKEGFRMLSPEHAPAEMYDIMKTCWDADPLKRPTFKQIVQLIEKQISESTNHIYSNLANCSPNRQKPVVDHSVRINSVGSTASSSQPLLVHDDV
Procedure: as §1, §2

KIT(L576P) = molecular target: T13, KIT(L576P) (Homo sapiens, UniProt P10721, L576P)
T13 construct: purchased DiscoveRx Corporation (KinomeScan)
T13 sequence (P10721 26-976 L576P): as the sequence (P10721 26-976) above, with L551P counted along it
Procedure: as §1, §2

LATS1 = molecular target: T14, LATS1 (Homo sapiens, UniProt O95835)
T14 construct: purchased DiscoveRx Corporation (KinomeScan)
Procedure: as §1, §2

MAP4K4 = molecular target: T15, MAP4K4 (Homo sapiens, UniProt O95819)
T15 construct: purchased DiscoveRx Corporation (KinomeScan)
Procedure: as §1, §2

MAPKAPK2 = molecular target: T16, MAPKAPK2 (Homo sapiens, UniProt P49137)
T16 construct: purchased DiscoveRx Corporation (KinomeScan)
Procedure: as §1, §2

MET(M1250T) = molecular target: T17, MET(M1250T) (Homo sapiens, UniProt P08581, M1250T)
T17 construct: purchased DiscoveRx Corporation (KinomeScan)
Procedure: as §1, §2

MINK = molecular target: T18, MINK (Homo sapiens, UniProt Q8N4C8)
T18 construct: purchased DiscoveRx Corporation (KinomeScan)
Procedure: as §1, §2

MTOR = molecular target: T19, MTOR (Homo sapiens, UniProt P42345)
T19 construct: purchased DiscoveRx Corporation (KinomeScan)
Procedure: as §1, §2

NEK1 = molecular target: T20, NEK1 (Homo sapiens, UniProt Q96PY6)
T20 construct: purchased DiscoveRx Corporation (KinomeScan)
Procedure: as §1, §2

PAK3 = molecular target: T21, PAK3 (Homo sapiens, UniProt O75914)
T21 construct: purchased DiscoveRx Corporation (KinomeScan panel)
T21 sequence (O75914 whole entry): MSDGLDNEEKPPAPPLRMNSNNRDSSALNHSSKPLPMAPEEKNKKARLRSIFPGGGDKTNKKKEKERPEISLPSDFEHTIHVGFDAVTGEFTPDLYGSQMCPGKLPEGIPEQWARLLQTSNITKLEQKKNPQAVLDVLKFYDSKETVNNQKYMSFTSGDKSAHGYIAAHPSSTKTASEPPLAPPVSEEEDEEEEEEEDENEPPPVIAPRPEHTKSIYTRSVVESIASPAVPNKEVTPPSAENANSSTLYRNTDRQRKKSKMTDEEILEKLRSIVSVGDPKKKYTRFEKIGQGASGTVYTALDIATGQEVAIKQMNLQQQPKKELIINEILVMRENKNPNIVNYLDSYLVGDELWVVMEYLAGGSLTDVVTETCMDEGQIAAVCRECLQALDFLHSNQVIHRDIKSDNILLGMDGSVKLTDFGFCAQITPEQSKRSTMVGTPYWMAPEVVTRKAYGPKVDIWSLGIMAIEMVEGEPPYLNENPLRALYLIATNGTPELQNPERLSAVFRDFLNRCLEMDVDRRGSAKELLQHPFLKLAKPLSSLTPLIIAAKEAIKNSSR
Procedure: as §1, §2

PDGFRA = molecular target: T22, PDGFRA (Homo sapiens, UniProt P16234)
T22 construct: purchased DiscoveRx Corporation (KinomeScan panel)
Procedure: as §1, §2

PLK2 = molecular target: T23, PLK2 (Homo sapiens, UniProt Q9NYY3)
T23 construct: purchased DiscoveRx Corporation (KinomeScan)
Procedure: as §1, §2

PRKCQ = molecular target: T24, PRKCQ (Homo sapiens, UniProt Q04759)
T24 construct: purchased DiscoveRx Corporation (KinomeScan)
Procedure: as §1, §2

PRKR = molecular target: T25, PRKR (Homo sapiens, UniProt P19525)
T25 construct: purchased DiscoveRx Corporation (KinomeScan)
Procedure: as §1, §2

RET (V804M) = molecular target: T26, RET (V804M) (Homo sapiens, UniProt P07949, V804M)
T26 construct: purchased DiscoveRx Corporation
Procedure: as §1, §2

RIOK1 = molecular target: T27, RIOK1 (Homo sapiens, UniProt Q9BRS2)
T27 construct: purchased DiscoveRx Corporation
Procedure: as §1, §2

SIK2 = molecular target: T28, SIK2 (Homo sapiens, UniProt Q9H0K1)
T28 construct: purchased DiscoveRx Corporation (KinomeScan)
Procedure: as §1, §2

SRMS = molecular target: T29, SRMS (Homo sapiens, UniProt Q9H3Y6)
T29 construct: purchased DiscoveRx Corporation (KinomeScan)
T29 sequence (Q9H3Y6 whole entry): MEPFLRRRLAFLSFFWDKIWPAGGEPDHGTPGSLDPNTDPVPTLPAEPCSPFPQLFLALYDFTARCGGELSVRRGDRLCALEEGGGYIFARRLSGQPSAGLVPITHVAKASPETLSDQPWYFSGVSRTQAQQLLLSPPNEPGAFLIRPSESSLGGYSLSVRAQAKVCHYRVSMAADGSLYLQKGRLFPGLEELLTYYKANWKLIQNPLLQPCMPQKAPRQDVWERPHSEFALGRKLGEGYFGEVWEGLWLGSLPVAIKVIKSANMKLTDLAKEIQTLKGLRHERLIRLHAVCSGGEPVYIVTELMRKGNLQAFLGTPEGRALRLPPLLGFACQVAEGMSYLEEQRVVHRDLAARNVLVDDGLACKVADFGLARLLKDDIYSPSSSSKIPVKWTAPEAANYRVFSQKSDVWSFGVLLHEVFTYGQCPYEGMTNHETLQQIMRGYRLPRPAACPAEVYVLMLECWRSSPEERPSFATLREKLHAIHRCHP
Procedure: as §1, §2

STK35 = molecular target: T30, STK35 (Homo sapiens, UniProt Q8TDR2)
T30 construct: purchased DiscoveRx Corporation (KinomeScan)
Procedure: as §1, §2

TAOK2 = molecular target: T31, TAOK2 (Homo sapiens, UniProt Q9UL54)
T31 construct: purchased DiscoveRx Corporation (KinomeScan)
T31 sequence (Q9UL54 whole entry): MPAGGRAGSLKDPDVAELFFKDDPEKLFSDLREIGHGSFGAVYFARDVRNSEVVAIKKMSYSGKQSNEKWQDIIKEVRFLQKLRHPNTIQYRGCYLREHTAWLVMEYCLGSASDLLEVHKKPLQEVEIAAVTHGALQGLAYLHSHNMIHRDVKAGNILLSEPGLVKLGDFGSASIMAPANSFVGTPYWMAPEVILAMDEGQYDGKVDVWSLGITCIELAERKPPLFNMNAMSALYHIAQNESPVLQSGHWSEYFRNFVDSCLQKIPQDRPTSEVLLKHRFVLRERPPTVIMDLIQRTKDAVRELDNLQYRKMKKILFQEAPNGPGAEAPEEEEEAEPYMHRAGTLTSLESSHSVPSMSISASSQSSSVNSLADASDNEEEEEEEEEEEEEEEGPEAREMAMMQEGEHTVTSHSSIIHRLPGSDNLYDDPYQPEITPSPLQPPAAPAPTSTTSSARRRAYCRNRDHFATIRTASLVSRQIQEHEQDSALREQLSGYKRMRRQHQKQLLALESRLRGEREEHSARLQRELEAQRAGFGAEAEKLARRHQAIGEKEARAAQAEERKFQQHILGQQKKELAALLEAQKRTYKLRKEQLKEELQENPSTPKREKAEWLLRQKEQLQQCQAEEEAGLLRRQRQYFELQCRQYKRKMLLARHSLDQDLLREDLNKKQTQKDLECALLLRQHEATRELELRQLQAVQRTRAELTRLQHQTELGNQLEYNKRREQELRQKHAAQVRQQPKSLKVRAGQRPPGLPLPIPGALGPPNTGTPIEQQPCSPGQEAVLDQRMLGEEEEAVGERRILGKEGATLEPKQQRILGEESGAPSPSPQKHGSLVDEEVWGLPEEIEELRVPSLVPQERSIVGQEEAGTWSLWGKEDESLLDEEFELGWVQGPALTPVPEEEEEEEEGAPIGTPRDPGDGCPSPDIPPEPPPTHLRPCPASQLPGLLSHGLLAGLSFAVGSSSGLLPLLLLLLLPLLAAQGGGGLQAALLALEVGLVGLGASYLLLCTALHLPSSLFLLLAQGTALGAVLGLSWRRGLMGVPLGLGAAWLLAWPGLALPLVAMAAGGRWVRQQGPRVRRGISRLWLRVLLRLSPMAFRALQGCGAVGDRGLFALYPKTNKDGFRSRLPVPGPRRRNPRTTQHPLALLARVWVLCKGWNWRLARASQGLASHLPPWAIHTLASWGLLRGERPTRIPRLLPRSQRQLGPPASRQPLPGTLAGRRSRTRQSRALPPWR
Procedure: as §1, §2

TBK1 = molecular target: T32, TBK1 (Homo sapiens, UniProt Q9UHD2)
T32 construct: purchased DiscoveRx Corporation (KinomeScan)
Procedure: as §1, §2

TESK1 = molecular target: T33, TESK1 (Homo sapiens, UniProt Q15569)
T33 construct: purchased DiscoveRx Corporation (KinomeScan)
Procedure: as §1, §2

TRKB = molecular target: T34, TRKB (Homo sapiens, UniProt Q16620)
T34 construct: purchased DiscoveRx Corporation (KinomeScan)
T34 sequence (Q16620 32-822): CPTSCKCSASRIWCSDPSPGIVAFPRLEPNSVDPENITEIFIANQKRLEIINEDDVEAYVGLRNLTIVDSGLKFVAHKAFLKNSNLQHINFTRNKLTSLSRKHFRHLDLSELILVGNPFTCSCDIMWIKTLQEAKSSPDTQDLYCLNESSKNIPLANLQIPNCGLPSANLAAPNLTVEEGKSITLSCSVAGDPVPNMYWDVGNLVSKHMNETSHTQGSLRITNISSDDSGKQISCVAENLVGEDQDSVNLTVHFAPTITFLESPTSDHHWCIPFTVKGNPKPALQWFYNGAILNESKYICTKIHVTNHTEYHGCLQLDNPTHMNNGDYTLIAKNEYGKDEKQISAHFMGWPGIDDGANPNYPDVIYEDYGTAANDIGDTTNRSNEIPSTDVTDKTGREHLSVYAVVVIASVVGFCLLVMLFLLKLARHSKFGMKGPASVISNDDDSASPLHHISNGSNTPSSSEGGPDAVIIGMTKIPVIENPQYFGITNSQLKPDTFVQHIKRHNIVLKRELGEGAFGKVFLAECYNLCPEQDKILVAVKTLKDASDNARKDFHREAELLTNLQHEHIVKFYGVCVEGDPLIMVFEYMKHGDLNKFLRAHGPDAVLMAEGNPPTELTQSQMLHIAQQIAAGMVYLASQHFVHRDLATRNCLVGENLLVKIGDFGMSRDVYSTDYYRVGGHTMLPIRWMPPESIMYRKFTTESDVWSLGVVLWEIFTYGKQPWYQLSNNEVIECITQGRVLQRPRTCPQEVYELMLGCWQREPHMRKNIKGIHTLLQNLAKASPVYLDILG
Procedure: as §1, §2

VRK2 = molecular target: T35, VRK2 (Homo sapiens, UniProt Q86Y07)
T35 construct: purchased DiscoveRx Corporation (KinomeScan service)
T35 sequence (Q86Y07 whole entry): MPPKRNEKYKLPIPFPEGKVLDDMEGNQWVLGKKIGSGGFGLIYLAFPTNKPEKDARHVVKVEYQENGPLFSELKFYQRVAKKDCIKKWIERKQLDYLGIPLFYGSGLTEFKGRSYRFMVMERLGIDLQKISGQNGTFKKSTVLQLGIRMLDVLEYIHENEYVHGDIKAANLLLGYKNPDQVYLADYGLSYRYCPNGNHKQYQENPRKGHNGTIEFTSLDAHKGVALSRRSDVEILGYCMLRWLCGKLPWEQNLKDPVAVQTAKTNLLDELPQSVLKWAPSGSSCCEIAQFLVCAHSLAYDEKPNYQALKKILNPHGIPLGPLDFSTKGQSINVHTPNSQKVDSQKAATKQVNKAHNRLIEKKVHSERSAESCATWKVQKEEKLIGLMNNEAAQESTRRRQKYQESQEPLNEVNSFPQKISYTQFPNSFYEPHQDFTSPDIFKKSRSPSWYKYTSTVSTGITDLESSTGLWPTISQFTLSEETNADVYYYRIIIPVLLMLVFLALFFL
Procedure: as §1, §2

YES = molecular target: T36, YES (Homo sapiens, UniProt P07947)
T36 construct: purchased DiscoveRx Corporation (KinomeScan service)
Procedure: as §1, §2

**Q.** With `CCOP(=O)(CN1CCC(COc2cc3nccc(Oc4ccc(NC(=O)C5(C(=O)Nc6ccc(F)cc6)CC5)cc4F)c3cc2OC)CC1)OCC` [Example 10, N1-[4-[[7-[[1-(diethoxyphosphorylmethyl)-4-piperidinyl]methoxyl]-6-methoxyl-4-quinolyl]oxyl]-3-fluorophenyl]-N1′-(4-fluorophenyl)cyclopropane-1,1-dicarboxamide] as the molecule, how does the “% Ctrl@1000 nM” value (ASK2) read?
**A.** 100 % Ctrl

**Q.** And the “% Ctrl@1000 nM” value (CSF1R)?
**A.** 0.25 % Ctrl

**Q.** And the “% Ctrl@1000 nM” value (DAPK3)?
**A.** 100 % Ctrl

**Q.** And the “% Ctrl@1000 nM” value (DMPK)?
**A.** 85 % Ctrl

**Q.** What about the “% Ctrl@1000 nM” value (EPHA6) of the same molecule?
**A.** 4.8 % Ctrl

**Q.** And the “% Ctrl@1000 nM” value (EPHB2)?
**A.** 2.8 % Ctrl

**Q.** And the “% Ctrl@1000 nM” value (EPHB6)?
**A.** 0.9 % Ctrl

**Q.** And the “% Ctrl@1000 nM” value (ERBB4)?
**A.** 100 % Ctrl

**Q.** What about the “% Ctrl@1000 nM” value (FGR) of the same molecule?
**A.** 35 % Ctrl

**Q.** What about the “% Ctrl@1000 nM” value (FLT3(ITD)) of the same molecule?
**A.** 2.8 % Ctrl

**Q.** And the “% Ctrl@1000 nM” value (HUNK)?
**A.** 100 % Ctrl

**Q.** And the “% Ctrl@1000 nM” value (JNK2)?
**A.** 93 % Ctrl

**Q.** What about the “% Ctrl@1000 nM” value (KIT) of the same molecule?
**A.** 0.2 % Ctrl

**Q.** What about the “% Ctrl@1000 nM” value (KIT(L576P)) of the same molecule?
**A.** 0 % Ctrl

**Q.** And the “% Ctrl@1000 nM” value (LATS1)?
**A.** 100 % Ctrl

**Q.** And the “% Ctrl@1000 nM” value (MAP4K4)?
**A.** 100 % Ctrl

**Q.** And the “% Ctrl@1000 nM” value (MAPKAPK2)?
**A.** 100 % Ctrl

**Q.** What about the “% Ctrl@1000 nM” value (MET(M1250T)) of the same molecule?
**A.** 3 % Ctrl

**Q.** And the “% Ctrl@1000 nM” value (MINK)?
**A.** 100 % Ctrl

**Q.** What about the “% Ctrl@1000 nM” value (MTOR) of the same molecule?
**A.** 100 % Ctrl

**Q.** And the “% Ctrl@1000 nM” value (NEK1)?
**A.** 100 % Ctrl

**Q.** And the “% Ctrl@1000 nM” value (PAK3)?
**A.** 32 % Ctrl

**Q.** And the “% Ctrl@1000 nM” value (PDGFRA)?
**A.** 1.8 % Ctrl

**Q.** And the “% Ctrl@1000 nM” value (PLK2)?
**A.** 83 % Ctrl

**Q.** What about the “% Ctrl@1000 nM” value (PRKCQ) of the same molecule?
**A.** 100 % Ctrl

**Q.** What about the “% Ctrl@1000 nM” value (PRKR) of the same molecule?
**A.** 100 % Ctrl

**Q.** What about the “% Ctrl@1000 nM” value (RET (V804M)) of the same molecule?
**A.** 0.6 % Ctrl

**Q.** And the “% Ctrl@1000 nM” value (RIOK1)?
**A.** 100 % Ctrl

**Q.** And the “% Ctrl@1000 nM” value (SIK2)?
**A.** 100 % Ctrl

**Q.** And the “% Ctrl@1000 nM” value (SRMS)?
**A.** 8.9 % Ctrl

**Q.** What about the “% Ctrl@1000 nM” value (STK35) of the same molecule?
**A.** 82 % Ctrl

**Q.** What about the “% Ctrl@1000 nM” value (TAOK2) of the same molecule?
**A.** 70 % Ctrl

**Q.** What about the “% Ctrl@1000 nM” value (TBK1) of the same molecule?
**A.** 79 % Ctrl

**Q.** What about the “% Ctrl@1000 nM” value (TESK1) of the same molecule?
**A.** 39 % Ctrl

**Q.** What about the “% Ctrl@1000 nM” value (TRKB) of the same molecule?
**A.** 4 % Ctrl

**Q.** And the “% Ctrl@1000 nM” value (VRK2)?
**A.** 100 % Ctrl

**Q.** And the “% Ctrl@1000 nM” value (YES)?
**A.** 20 % Ctrl
